Results as given in the NIST ThermoML archive (doi:10.1021/acs.jced.7b00713).

Assay: molar heat capacity at constant pressure
Conditions: Liquid, Flow calorimetry

F/C=C/C(F)(F)F [trans-1,3,3,3-tetrafluoropropene]
Conditions	molar heat capacity at constant pressure [J/K/mol]
313.46 K, 3000 kPa	160.8
313.47 K, 3980 kPa	158.97
313.47 K, 4490 kPa	157.95
313.48 K, 3490 kPa	159.89
313.48 K, 5010 kPa	157.04
313.49 K, 1040 kPa	165.36
313.49 K, 5490 kPa	156.58
313.49 K, 6010 kPa	155.67
313.49 K, 6990 kPa	153.61
313.49 K, 7470 kPa	152.93
313.5 K, 1510 kPa	164.22
313.5 K, 7990 kPa	152.36
313.51 K, 2010 kPa	163.08
313.51 K, 6510 kPa	154.53
313.51 K, 8500 kPa	151.79
313.52 K, 2480 kPa	162.4
313.52 K, 8990 kPa	150.99
313.52 K, 9510 kPa	150.65
313.53 K, 10000 kPa	149.96
323.28 K, 3520 kPa	163.76
323.28 K, 4030 kPa	162.4
323.29 K, 4530 kPa	161.25
323.29 K, 4990 kPa	160.46
323.29 K, 7490 kPa	155.89
323.29 K, 8010 kPa	154.75
323.29 K, 8520 kPa	154.18
323.29 K, 9040 kPa	153.04
323.31 K, 5490 kPa	159.66
323.31 K, 7030 kPa	156.92
323.32 K, 3010 kPa	164.68
323.32 K, 6010 kPa	158.63
323.33 K, 1510 kPa	168.9
323.33 K, 2010 kPa	167.41
323.33 K, 2500 kPa	165.93
323.33 K, 6480 kPa	157.83
323.34 K, 9490 kPa	152.7
323.36 K, 10010 kPa	151.79
333.08 K, 1550 kPa	178.13
333.08 K, 2060 kPa	175.62
333.11 K, 2510 kPa	173.69
333.11 K, 3500 kPa	170.26
333.13 K, 3030 kPa	172.09
333.13 K, 7490 kPa	160.8
333.14 K, 8040 kPa	159.32
333.15 K, 4000 kPa	169.01
333.15 K, 6520 kPa	162.4
333.15 K, 7020 kPa	161.37
333.16 K, 6010 kPa	163.54
333.16 K, 8500 kPa	158.75
333.18 K, 4980 kPa	166.27
333.18 K, 5500 kPa	164.56
333.19 K, 4500 kPa	167.76
333.19 K, 9020 kPa	158.06
333.2 K, 10080 kPa	155.89
333.21 K, 9510 kPa	157.38
343.53 K, 2040 kPa	185.77
343.57 K, 2550 kPa	183.04
343.57 K, 3000 kPa	180.3
343.59 K, 3540 kPa	178.36
343.6 K, 4040 kPa	175.74
343.61 K, 4540 kPa	173.23
343.62 K, 5040 kPa	171.75
343.62 K, 5510 kPa	169.69
343.62 K, 10070 kPa	157.61
343.63 K, 9080 kPa	160
343.63 K, 9530 kPa	159.09
343.64 K, 6050 kPa	168.44
343.64 K, 6590 kPa	166.61
343.64 K, 7070 kPa	165.25
343.64 K, 7510 kPa	163.88
343.64 K, 8090 kPa	162.17
343.65 K, 8480 kPa	160.91
353.55 K, 2550 kPa	196.49
353.55 K, 3510 kPa	188.4
353.58 K, 3040 kPa	192.05
353.61 K, 5010 kPa	178.36
353.61 K, 5510 kPa	176.54
353.62 K, 6040 kPa	175.17
353.64 K, 4520 kPa	181.44
353.64 K, 6530 kPa	173.69
353.64 K, 7050 kPa	172.54
353.65 K, 7500 kPa	171.63
353.65 K, 7970 kPa	170.72
353.66 K, 4050 kPa	184.52
353.67 K, 8480 kPa	170.04
353.68 K, 9030 kPa	168.67
353.68 K, 9510 kPa	168.21
353.68 K, 10090 kPa	166.96
363.56 K, 3500 kPa	207.67
363.56 K, 4000 kPa	200.03
363.57 K, 3000 kPa	219.53
363.61 K, 4510 kPa	194.78
363.61 K, 5520 kPa	186.46
363.62 K, 4990 kPa	190.34
363.63 K, 6020 kPa	182.81
363.64 K, 6520 kPa	180.19
363.64 K, 6990 kPa	177.33
363.64 K, 7530 kPa	175.05
363.64 K, 8010 kPa	173.12
363.65 K, 8530 kPa	171.4
363.65 K, 9050 kPa	170.15
363.66 K, 9450 kPa	169.01
363.66 K, 9990 kPa	167.76
373.35 K, 3540 kPa	259.44
373.42 K, 4030 kPa	231.73
373.42 K, 4510 kPa	216.91
373.43 K, 5010 kPa	206.42
373.44 K, 5540 kPa	199.23
373.47 K, 6020 kPa	194.1
373.48 K, 7010 kPa	185.66
373.49 K, 6530 kPa	189.54
373.49 K, 7500 kPa	183.04
373.5 K, 8030 kPa	179.62
373.51 K, 8510 kPa	177.45
373.56 K, 9050 kPa	175.4
373.57 K, 9430 kPa	174.48
373.59 K, 9990 kPa	172.66
391.65 K, 4520 kPa	525.5
392.2 K, 5020 kPa	310.99
392.38 K, 5470 kPa	257.73
392.46 K, 6010 kPa	226.37
392.52 K, 6540 kPa	210.06
392.57 K, 7060 kPa	200.6
392.6 K, 7560 kPa	194.55
392.63 K, 8030 kPa	191.02
392.67 K, 8510 kPa	189.88
392.72 K, 9070 kPa	188.05
392.75 K, 10000 kPa	187.03
392.77 K, 9520 kPa	188.51
392.77 K, 10010 kPa	187.48
